For one assay, the target named is T1, RelA(p65) (Homo sapiens, UniProt Q04206).
T1 construct: endogenous in cells
Description: nuclear localization of RelA by immunofluorescent staining. The assay is classed as cell-based. The following applies: TNBC cell lines, 20 mM CRL1101 in 1% DMSO, 45 minutes, FIG. 2. As for the experimental part:
Cells were grown in Dulbecco's modified Eagle medium supplemented with 10% heat-inactivated fetal calf serum and 1% (w/v) penicillin/streptomycin (all purchased from Mediatech Inc, Manassas, Va., USA). Cells were treated with or without 20 mM of CRL1101 in 1% DMSO. Forty five minutes after treatment, cells were fixed with 4% formaldehyde for 10 min and sequentially treated with 0.1% Triton X 100 for 10 min. Cells were blocked in 1% BSA in PBS for 10 min. cells were incubated with anti-Re/A(p65) antibody (1:150, Abeam, Cambridge, UK) in PBS with 1% BSA overnight at 4° C. and a secondary antibody (1:1000 anti-rabbit Alexa 488, Invitrogen, Carlsbad, Calif., USA) for 1 hr in the dark. Analyses were performed using a microscope (Nikon ECLIPSE Ti-U, Nikon, Tokyo, JAPAN).

In assay [1] the test system is triple-negative breast cancer cell lines. Description: cell proliferation by calorimetric assay (MTT). The following applies: FIG. 1A. The assay is classed as cell-based.
Another assay relates to MDA-MB-231 cells. Put plainly: xenograft breast cancer model, tumor growth. The assay is classed as in vivo, athymic mice. Particulars: 25 mg/kg/day IP for 4 weeks, compared to vehicle, N=6, FIG. 3. As for the experimental part: Mice were administrated 25 mg/kg/day of CRL1101 or vehicle IP, as indicated by arrows. Results are given as mean tumor volume +− s.e. […] N=6. Therapeutic efficacy of CRL1101 was tested in xenograft breast cancer model. Briefly, triple-negative breast cancer cells, MDA-MB-231 were used to grow tumor in athymic mice. Mice were treated with 25 mg/kg/day, IP for 4 weeks. The control group was treated with vehicle.

The next assay concerns breast cancer cells. Put plainly: anchorage independent growth assay (colony formation, clonogenic survival). Particulars: 15 uM CRL1101 added after 24 hours, 14 days, soft agarose, FIG. 1B. The assay is classed as cell-based. As for the experimental part: The effects of CRL1101 on clonogenic survival were analyzed. Base layers consisting of growth medium containing 0.53% low-melting point agarose (Invitrogen) were poured onto 6-well plates and allowed to solidify. Cells were seeded at concentration of 10000/well in triplicate in top layers consisting of growth medium containing 0.32% agarose. After 24 hours, 15, uM of CRL1101 was added. Cells were incubated for 14 days to form visible colonies. The colonies were fixed and stained by 0.05% Crystal violet in 50% methanol.

“Also recorded” adds a separate entry of the source.

T1 sequence (Q04206 whole entry): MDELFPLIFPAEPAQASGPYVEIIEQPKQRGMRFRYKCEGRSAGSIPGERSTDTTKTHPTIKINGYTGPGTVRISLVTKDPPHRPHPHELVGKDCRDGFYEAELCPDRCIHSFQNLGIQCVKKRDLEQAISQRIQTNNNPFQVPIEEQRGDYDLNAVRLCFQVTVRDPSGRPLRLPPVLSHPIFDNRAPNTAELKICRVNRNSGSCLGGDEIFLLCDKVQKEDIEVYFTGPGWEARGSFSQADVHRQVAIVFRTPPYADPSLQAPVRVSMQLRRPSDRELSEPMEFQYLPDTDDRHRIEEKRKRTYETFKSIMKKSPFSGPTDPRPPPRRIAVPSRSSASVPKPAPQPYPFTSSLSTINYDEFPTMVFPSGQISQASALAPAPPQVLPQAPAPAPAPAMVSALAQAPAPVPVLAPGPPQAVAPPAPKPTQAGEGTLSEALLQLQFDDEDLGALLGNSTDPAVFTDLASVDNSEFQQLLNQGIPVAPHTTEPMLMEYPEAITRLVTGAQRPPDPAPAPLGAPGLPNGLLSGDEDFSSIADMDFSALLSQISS

With `Cl.O=[N+]([O-])c1cc(S(=O)(=O)CCCN2CCOCC2)ccc1F` [CRL1101], on RelA(p65), the “nuclear localization of RelA” value is listed as “significantly inhibited”. For the same compound, the IC50 in assay [1] (all the three TNBC cell lines, MTT, read-out: IC50, inhibition of TNBC cell line proliferation) was found to be 20 µM. For the same compound, the cell proliferation result in assay [1] (breast cancer cells) is “significantly inhibited”. In addition, in the assay with MDA-MB-231 cells, the “tumor growth (mean tumor volume)” value is reported as “significant reduction in tumor growth; also recorded: significant (p<0.001) compared to vehicle”. Further, the colony formation result in the assay with breast cancer cells is “significantly inhibited”.

The record behind these values is patent US10881641B2, “Methods and use of compounds that bind to RelA of NF-kB” (Cedars-Sinai Medical Center, priority 2015, dated 2021).
